One data set concerns the target T1, Lipase (Bacteroides thetaiotaomicron, UniProt Q8A3J3).
T1 sequence (Q8A3J3 whole entry): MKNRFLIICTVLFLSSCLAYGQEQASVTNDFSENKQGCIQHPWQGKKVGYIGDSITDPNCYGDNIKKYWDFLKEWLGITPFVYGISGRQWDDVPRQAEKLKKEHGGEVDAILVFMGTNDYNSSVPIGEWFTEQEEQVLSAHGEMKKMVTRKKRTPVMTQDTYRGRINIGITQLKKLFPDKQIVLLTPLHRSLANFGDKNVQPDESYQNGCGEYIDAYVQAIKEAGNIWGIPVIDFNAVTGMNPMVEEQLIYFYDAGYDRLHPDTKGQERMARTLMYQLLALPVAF
In words: (§1) The drug is tested on Bacteroides thetaiotaomicron strain: VPI-5482 for biotransformation. The drug concentrations were measured before and after a 12-h incubation by liquid-chromatography-coupled mass spectrometry (LC–MS). The data set is classed as ADME. Further details: dose 2 uM. Particulars: 2 µM.

The target of data set [1] is T2, Lipolytic enzyme, G-D-S-L family (Bacteroides thetaiotaomicron, UniProt Q8A0C5).
T2 sequence (Q8A0C5 whole entry): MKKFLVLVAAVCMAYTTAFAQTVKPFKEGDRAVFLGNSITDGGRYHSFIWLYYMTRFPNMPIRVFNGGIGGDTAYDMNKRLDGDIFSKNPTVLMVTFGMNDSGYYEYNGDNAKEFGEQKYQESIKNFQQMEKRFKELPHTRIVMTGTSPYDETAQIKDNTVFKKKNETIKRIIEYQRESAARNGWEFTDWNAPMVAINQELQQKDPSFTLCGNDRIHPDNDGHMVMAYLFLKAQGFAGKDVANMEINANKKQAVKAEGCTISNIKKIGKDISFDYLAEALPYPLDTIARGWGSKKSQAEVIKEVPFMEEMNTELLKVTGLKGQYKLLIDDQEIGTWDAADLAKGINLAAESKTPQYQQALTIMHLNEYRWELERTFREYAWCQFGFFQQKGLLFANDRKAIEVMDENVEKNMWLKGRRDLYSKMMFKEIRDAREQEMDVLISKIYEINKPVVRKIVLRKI
The data set is described as §1. It is filed as ADME. Further details: dose 2 uM. Particulars: 2 µM.

Data set [2] deals with T3, Pyridine nucleotide-disulfide oxidoreductase (Collinsella aerofaciens, UniProt A4EBM5).
T3 sequence (A4EBM5 whole entry): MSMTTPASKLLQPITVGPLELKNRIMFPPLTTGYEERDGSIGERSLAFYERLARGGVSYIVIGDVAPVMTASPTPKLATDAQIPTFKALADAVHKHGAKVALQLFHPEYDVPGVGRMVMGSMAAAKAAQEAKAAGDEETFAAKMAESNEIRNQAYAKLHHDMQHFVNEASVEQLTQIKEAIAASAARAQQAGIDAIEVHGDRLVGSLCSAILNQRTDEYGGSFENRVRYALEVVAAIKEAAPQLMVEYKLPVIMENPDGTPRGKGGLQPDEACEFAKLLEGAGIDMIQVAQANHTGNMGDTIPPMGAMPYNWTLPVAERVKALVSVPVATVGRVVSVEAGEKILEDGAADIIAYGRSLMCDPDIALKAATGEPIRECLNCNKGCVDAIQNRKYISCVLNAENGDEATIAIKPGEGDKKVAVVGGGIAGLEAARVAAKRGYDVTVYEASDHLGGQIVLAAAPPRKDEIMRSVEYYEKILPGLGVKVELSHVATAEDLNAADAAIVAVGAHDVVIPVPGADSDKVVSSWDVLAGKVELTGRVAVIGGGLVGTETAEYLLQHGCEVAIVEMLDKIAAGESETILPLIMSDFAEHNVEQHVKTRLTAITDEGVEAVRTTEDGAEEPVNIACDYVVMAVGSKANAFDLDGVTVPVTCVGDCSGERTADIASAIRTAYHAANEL
Nature of the data set: (§2) The drug is tested on Collinsella aerofaciens strain: ATCC25986 for biotransformation. The drug concentrations were measured before and after a 12-h incubation by liquid-chromatography-coupled mass spectrometry (LC–MS). Further details: dose 2 uM. The data set is classed as ADME. Particulars: 2 µM.

Another data set has as its target T4, Flavodoxin (Collinsella aerofaciens, UniProt A4ED08).
T4 sequence (A4ED08 whole entry): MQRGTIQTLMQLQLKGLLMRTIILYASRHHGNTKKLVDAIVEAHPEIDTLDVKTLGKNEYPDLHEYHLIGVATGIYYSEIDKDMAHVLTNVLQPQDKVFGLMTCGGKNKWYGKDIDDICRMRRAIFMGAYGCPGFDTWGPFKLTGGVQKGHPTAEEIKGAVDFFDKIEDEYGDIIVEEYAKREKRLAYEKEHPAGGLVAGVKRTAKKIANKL
Described as §2. It is filed as ADME. Also noted: dose 2 uM. Particulars: 2 µM.

In a further data set the target is T5, Diguanylate cyclase (Collinsella aerofaciens, UniProt A4EB91).
T5 sequence (A4EB91 whole entry): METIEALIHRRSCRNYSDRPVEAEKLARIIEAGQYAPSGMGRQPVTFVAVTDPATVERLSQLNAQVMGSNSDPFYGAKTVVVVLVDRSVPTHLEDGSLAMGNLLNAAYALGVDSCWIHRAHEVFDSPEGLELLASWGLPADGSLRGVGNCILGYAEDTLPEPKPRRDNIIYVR
The description is as §2. It is filed as ADME. Also noted: dose 2 uM. Particulars: 2 µM.

Data set [3] deals with T6, GDSL-like protein (Collinsella aerofaciens, UniProt A4E7D0).
T6 sequence (A4E7D0 whole entry): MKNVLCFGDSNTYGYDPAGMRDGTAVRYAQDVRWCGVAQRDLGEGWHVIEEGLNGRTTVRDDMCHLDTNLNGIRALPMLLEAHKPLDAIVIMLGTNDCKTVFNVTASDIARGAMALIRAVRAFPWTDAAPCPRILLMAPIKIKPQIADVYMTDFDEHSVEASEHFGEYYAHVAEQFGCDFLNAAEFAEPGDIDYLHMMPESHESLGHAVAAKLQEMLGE
The data set is described as §2. Particulars: 2 µM. It is filed as ADME. Also noted: dose 2 uM.

Data set [4] concerns the target T7, GDSL-like protein (Collinsella aerofaciens, UniProt A4E8S4).
T7 sequence (A4E8S4 whole entry): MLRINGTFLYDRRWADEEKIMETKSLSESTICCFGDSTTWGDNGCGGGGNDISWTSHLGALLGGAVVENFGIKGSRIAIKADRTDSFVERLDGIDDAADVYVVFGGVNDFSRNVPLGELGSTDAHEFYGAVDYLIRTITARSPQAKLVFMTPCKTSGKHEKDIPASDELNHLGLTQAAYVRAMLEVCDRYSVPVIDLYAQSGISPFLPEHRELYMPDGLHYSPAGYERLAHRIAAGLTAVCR
Described as §2. The data set is classed as ADME. Also noted: dose 2 uM. Particulars: 2 µM.

Data set [5] in a line: The drug is tested on Salmonella typhimurium strain: LT2 for biotransformation. The drug concentrations were measured before and after a 12-h incubation by liquid-chromatography-coupled mass spectrometry (LC–MS). Particulars: salmonella enterica subsp. enterica, 2 µM.

As for `Nc1ccc(/N=N/c2ccccc2)c(N)n1` [PHENAZOPYRIDINE], the “Bacterial Biotransformation” value at Lipase is “Compound NOT metabolized”; in data set [1], “Compound NOT metabolized”; in data set [2], “Compound NOT metabolized”; on Flavodoxin, “Compound metabolized”; on Diguanylate cyclase, “Compound NOT metabolized”; at GDSL-like protein [3] it was “Compound NOT metabolized”. Also, the “Bacterial Biotransformation” value on GDSL-like protein [4] is listed as “Compound NOT metabolized”.

With `CC(=O)OCC(=O)NCCCOc1cccc(CN2CCCCC2)c1` [ROXATIDINE ACETATE], the “Bacterial Biotransformation” value on Lipase was “Compound NOT metabolized”; in data set [1] it was “Compound metabolized”; in data set [2], “Compound NOT metabolized”; at Flavodoxin it was “Compound NOT metabolized”; on Diguanylate cyclase, “Compound NOT metabolized”; on GDSL-like protein [3] it was “Compound NOT metabolized”. In addition, the “Bacterial Biotransformation” value on GDSL-like protein [4] is reported as “Compound NOT metabolized”.

Turning to `CCS(=O)(=O)CCn1c([N+](=O)[O-])cnc1C` [TINIDAZOLE], the “Bacterial Biotransformation” value is “Compound NOT metabolized” on Lipase; “Compound NOT metabolized” in data set [1]; “Compound metabolized” in data set [2]; “Compound NOT metabolized” on Flavodoxin; “Compound NOT metabolized” on GDSL-like protein [3]; “Compound NOT metabolized” on GDSL-like protein [4].

On to `CC(=O)Oc1ccc(C(c2ccc(OC(C)=O)cc2)c2ccccn2)cc1` [BISACODYL], for which the “Bacterial Biotransformation” value at Lipase is recorded as “Compound metabolized”; in data set [1], “Compound metabolized”; in data set [5], “Compound metabolized”; in data set [2], “Compound NOT metabolized”; on Flavodoxin, “Compound NOT metabolized”; at Diguanylate cyclase, “Compound NOT metabolized”. In addition, the “Bacterial Biotransformation” value on GDSL-like protein [3] and on GDSL-like protein [4] was “Compound metabolized” in each case.

For `C#C[C@]1(O)CC[C@H]2[C@@H]3CCC4=Cc5oncc5C[C@]4(C)[C@H]3CC[C@@]21C` [DANAZOL], the “Bacterial Biotransformation” value (at Lipase; in data set [1]; in data set [2]; on Flavodoxin; at Diguanylate cyclase; at GDSL-like protein [3]) was “Compound NOT metabolized” in each case. Also, the “Bacterial Biotransformation” value at GDSL-like protein [4] was “Compound NOT metabolized”.

`COc1ccnc(C[S+]([O-])c2nc3ccc(OC(F)F)cc3[nH]2)c1OC` (stereo not drawn) [PANTOPRAZOLE]: the “Bacterial Biotransformation” value (at Lipase; in data set [1]; in data set [2]; at Flavodoxin; on Diguanylate cyclase; at GDSL-like protein [3]) was “Compound NOT metabolized” throughout. Further, at GDSL-like protein [4], the “Bacterial Biotransformation” value is reported as “Compound NOT metabolized”.

Turning to `CCN(CC)C(=O)/C(C#N)=C/c1cc(O)c(O)c([N+](=O)[O-])c1` [ENTACAPONE], the “Bacterial Biotransformation” value was “Compound NOT metabolized” on Lipase; “Compound NOT metabolized” in data set [1]; “Compound NOT metabolized” in data set [2]; “Compound NOT metabolized” at Flavodoxin; “Compound metabolized” on Diguanylate cyclase; “Compound NOT metabolized” on GDSL-like protein [3]. Further, on GDSL-like protein [4], the “Bacterial Biotransformation” value was “Compound NOT metabolized”.

Regarding `CC(=O)SCC(Cc1ccccc1)C(=O)NCC(=O)OCc1ccccc1` (stereo not drawn) [RACECADOTRIL], the “Bacterial Biotransformation” value was “Compound metabolized” on Lipase; “Compound metabolized” in data set [1]; “Compound NOT metabolized” in data set [2]; “Compound NOT metabolized” at Flavodoxin; “Compound NOT metabolized” on Diguanylate cyclase; “Compound NOT metabolized” on GDSL-like protein [3]. For the same compound, on GDSL-like protein [4], the “Bacterial Biotransformation” value is “Compound metabolized”.

Regarding `CCOC(=O)C1=C(C)NC(C)=C(C(=O)OC)C1c1cccc([N+](=O)[O-])c1` (stereo not drawn) [NITRENDIPINE], the “Bacterial Biotransformation” value was “Compound NOT metabolized” in data set [1]; “Compound NOT metabolized” in data set [2]; “Compound NOT metabolized” on Flavodoxin; “Compound metabolized” on Diguanylate cyclase; “Compound NOT metabolized” on GDSL-like protein [3]; “Compound NOT metabolized” on GDSL-like protein [4].

For the compound `CC(=O)Nc1ccc(OC(C)=O)cc1` [DIACETAMATE], the “Bacterial Biotransformation” value at Lipase is listed as “Compound metabolized”; in data set [1] it was “Compound metabolized”; in data set [2] it was “Compound NOT metabolized”; on Flavodoxin, “Compound NOT metabolized”; on Diguanylate cyclase it was “Compound NOT metabolized”; on GDSL-like protein [3], “Compound metabolized”. Besides, at GDSL-like protein [4], the “Bacterial Biotransformation” value is “Compound metabolized”.

Turning to `CC(=O)OCC(=O)[C@@]12N=C(C)O[C@@H]1C[C@H]1[C@@H]3CCC4=CC(=O)C=C[C@]4(C)[C@H]3[C@@H](O)C[C@@]12C` [DEFLAZACORT], the “Bacterial Biotransformation” value is “Compound metabolized” in data set [1]; “Compound NOT metabolized” in data set [2]; “Compound NOT metabolized” on Flavodoxin; “Compound NOT metabolized” at Diguanylate cyclase; “Compound NOT metabolized” at GDSL-like protein [3].

Take `O=C(O)c1cc(/N=N/c2ccc(S(=O)(=O)Nc3ccccn3)cc2)ccc1O` [SULFASALAZINE]: the “Bacterial Biotransformation” value (at Lipase; in data set [2]; on Flavodoxin; at Diguanylate cyclase) was “Compound NOT metabolized” in each case.
